One series has as its system K562. Briefly: Antiproliferative activity in K562 leukemia cells. The class given is cell-based. To be noted: Homo sapiens.
The nature of series [1]: Cytotoxicity assay in primary murine mammary epithelial cells (alamar blue). The class given is cell-based, mouse. The conditions noted are these: female, CD-1, mouse, primary mammary epithelial cells, 72 h; for viability at 72 h, 10 μM: murine epithelial cells, read-out: % Viable cells; for viability at 72 h: at the compound's IC50 in MCF-7 cells, read-out: % Viable cells at IC50. On the procedure:
(§1) As previously reported mammary glands from 14–18 day pregnant CD-1 mice were used as source and primary mammary epithelial cell cultures were prepared from these. The isolated mammary epithelial cells were seeded at two concentrations (25,000 cells/mL and 50,000 cells/mL). […] After 24 h, the cells were treated with 2 µL volumes of test compound 7s which had been pre-prepared as stock solutions in ethanol to furnish the concentration range of study, 1 nM–100 µM, and re-incubated for a further 72 h. Control wells contained the equivalent volume of the vehicle ethanol (1% v/v). The cytotoxicity was assessed using alamar blue dye.

Series [2] deals with normal murine mammary epithelial cells. Described as above. The class given is cell-based, mouse. The conditions noted are these: for IC50: Mus musculus, Epithelial cell, alamar blue; for IC50 / % Viable cells at IC50: 72 h; for % Viable cells at IC50: at the compound's IC50 in MCF-7 cells, 25,000 cells/mL. The procedure: as §1
The test system of a further series is MCF-7 cells. Nature of the series: Cell cycle analysis (PI flow cytometry). The class given is cell-based, human. To be noted: for apoptotic cells (sub-G0G1): 72 h. The procedure: MCF-7 cells (adherent and detached) were treated with the appropriate concentration of compound 7s and incubated for the designated time. Cells were collected, trypsinised and centrifuged at 800× g for 15 min. Cells were washed twice with ice-cold PBS and fixed in ice-cold 70% ethanol overnight at −20 °C. Fixed cells were centrifuged at 800× g for 15 min and stained with 50 μg/mL of PI, containing 50 μg/mL of DNase-free RNase A, at 37 °C for 30 min.
In general terms: Flow cytometry measures light scatter and fluorescence of single cells or particles in a stream.

The subject of the next series is A549/ATCC. Briefly: NCI60 screen (SRB), Non-Small Cell Lung Cancer. The class given is cell-based. To be noted: Homo sapiens.
A further series has as its system HOP-62. Briefly: NCI60 screen (SRB), Non-Small Cell Lung Cancer. It counts as cell-based. To be noted: Homo sapiens.
The test system of a further series is NCI-H226. Nature of the series: NCI60 screen (SRB), Non-Small Cell Lung Cancer. To be noted: Homo sapiens. The class given is cell-based.
For a further series, the system named is NCI-H23. Briefly: NCI60 screen (SRB), Non-Small Cell Lung Cancer. The class given is cell-based. The conditions noted are these: Homo sapiens.
The test system of the next series is NCI-H552. Nature of the series: NCI60 screen (SRB), Non-Small Cell Lung Cancer. The class given is cell-based.
The test system of another series is COLO 205. Nature of the series: NCI60 screen (SRB), Colon Cancer. It counts as cell-based. The conditions noted are these: Homo sapiens.
In another series the test system is SF-268. Briefly: NCI60 screen (SRB), CNS Cancer. It counts as cell-based. The conditions noted are these: Homo sapiens.
In a further series the test system is SF295. Briefly: NCI60 screen (SRB), CNS Cancer. The class given is cell-based. The conditions noted are these: Homo sapiens, SF-295.
A further series has as its system M14. Briefly: NCI60 screen (SRB), Melanoma. The class given is cell-based. The conditions noted are these: Homo sapiens.
For the next series, the system named is SK-MEL-2. Briefly: NCI60 screen (SRB), Melanoma. It counts as cell-based. The conditions noted are these: Homo sapiens.
A further series concerns RXF 393. Nature of the series: NCI60 screen (SRB), Renal cancer. It counts as cell-based. To be noted: Homo sapiens.
Series [3] can be described thus: HPLC stability study in phosphate buffers. The class given is physicochemical. The conditions noted are these: phosphate buffer, read-out: half-life (t½). On the procedure:
Analytical high-performance liquid chromatography (HPLC) stability studies were performed using a Symmetry® column (C18, 5 µm, 4.6 × 150 mm), a Waters 2487 Dual Wavelength Absorbance detector, a Waters 1525 binary HPLC pump and a Waters 717 plus Autosampler (Waters Corporation, 34 Maple St, Milford, MA, USA). Samples were detected at wavelength of 254 nm. All samples were analysed using acetonitrile (80%) and water (20%) as the mobile phase over 10 min and a flow rate of 1 mL/min. Stock solutions were prepared by dissolving 5 mg of compound 7s, 17b and 17c in 10 mL of mobile phase. Phosphate buffers at the desired pH values (4, 7.4 and 9) were prepared in accordance with the British Pharmacopoeia monograph 2015. 30 µL of stock solution was diluted with 1 mL of appropriate buffer, shaken and injected immediately. Samples were withdrawn and analysed at time intervals of t = 0 min, 5 min, 30 min, 60 min, 90 min, 120 min, 24 h and 48 h. Plasma stability studies: 360 µL stock solution of compounds 7s, 17b and 17c were transferred to buffered plasma (plasma: buffer = 1:9, 4 mL in total) at 37 °C in screw cap container. Immediately a 250 µL aliquot was withdrawn and added to the Eppendorf tube containing 500 µL ZnSO4.7H2O solution (2% w/v ZnSO4 solution in acetonitrile: water, 1:1). The samples were then centrifuged at 10,000 rpm for 3 min and filtered through a 0.2-micron filter and injected according to the HPLC conditions listed above. Further samples were taken in the same manner every 1 h thereafter up to 6 h. A final sample was taken after 24 h. Whole blood stability studies. A 360 µL aliquot of stock solution of compounds 17b and 17c in acetonitrile was added in whole blood (4 mL, treated with 2% sodium citrate) at 37 °C and 300 µL aliquots were withdrawn at approptiate intervals. Samples were transferred to 1.5 mL Eppenddorf tubes containing 1 mL of ZnSO4. 7H2O solution (2% w/v ZnSO4 solution in acetonitrile: water, 1:1), vortexed and then centrifuged for 5 min at 14,000 rpm. The sample filtered through a 0.2-micron filter and injected according to the HPLC conditions listed above.

Series [4] in a line: Whole blood stability study. It counts as in vitro ADME. To be noted: 37 °C.
The mark [5] stands for this setting: NCI60 Colon Cancer cell line COLO 205, read-out: GI50.
The mark [6] stands for this setting: NCI60 CNS Cancer cell line SF-268, read-out: GI50.
Where [7] appears, read: NCI60 CNS Cancer cell line SF295, read-out: GI50.
Where [8] appears, read: NCI60 Melanoma cell line M14, read-out: GI50.
The mark [9] stands for this setting: NCI60 Melanoma cell line SK-MEL-2, read-out: GI50.
Setting [10] is: NCI60 Renal cancer cell line RXF 393, read-out: GI50.

Where two headings read alike, the source gives them in different places.

One may read the IC50 as the midpoint of a concentration-inhibition curve. Read a high IC50 as a need for much substance. As a reminder, the GI50 is the concentration at which growth is held to half of that of the control. Usually half-life stands for the time needed for the level to fall by half in the phase considered.

On to `COc1ccc(/C=C\c2cc(OC)c(OC)c(OC)c2)cc1O` [CA-4, Combretastatin A-4, reference compound], for which the IC50 with K562 is 4 nM; in series [2] it was greater than 10000 nM. For the same compound, the viability at 72 h, 10 μM in series [1] (10 μM, 25,000 cells/mL) was 58%; in series [1] (10 μM, 50,000 cells/mL), 75%. The viability at 72 h in [1] (25,000 cells/mL) worked out at 74%; in series [1] (50,000 cells/mL), 92.1%. For the same compound, the “% Viable cells at IC50” value in [2] came to 73.6%. Also, the “cells in G2M arrest” value in the series with MCF-7 cells (100 nM, 48 h) is reported as 52%. In the series on MCF-7 cells (100 nM, 48 h), this compound gave a sub-G0G1 population of 9.4%.
Regarding `C=CC1C(=O)N(c2cc(OC)c(OC)c(OC)c2)C1c1ccc(OC)cc1` (stereo not drawn) [Compound 7h, 4-(4-Methoxyphenyl)-1-(3,4,5-trimethoxyphenyl)-3-vinylazetidin-2-one], the GI50 in the series with A549/ATCC was found to be 41.3 nM; in the series on HOP-62, 36.9 nM; with NCI-H226 it was 33.9 nM; with NCI-H23 it was 24.5 nM; in the series on NCI-H552 it was 20.6 nM; with COLO 205 (COLO 205) it was 20.6 nM. The GI50 is 47.6 nM with SF-268 (SF-268); 35.8 nM in the series on SF295; 25.2 nM in the series on M14 (M14); 191 nM in the series on SK-MEL-2 (SK-MEL-2); 28.7 nM with RXF 393 (RXF 393).
Consider `C=CC1C(=O)N(c2cc(OC)c(OC)c(OC)c2)C1c1ccc(OC)c(O)c1` (stereo not drawn) [Compound 7s, 4-[3-Hydroxy-4-methoxyphenyl]-1-(3,4,5-trimethoxyphenyl)-3-vinylazetidin-2-one], for which the concentration for half-maximal inhibition (IC50) in the series on K562 was 26 nM; in [2] it was greater than 10000 nM. For the same compound, the viability at 72 h, 10 μM was 60% in series [1] (10 μM, 25,000 cells/mL) and 73.3% in series [1] (10 μM, 50,000 cells/mL). For the same compound, the results for the viability at 72 h in [1] (25,000 cells/mL) and in series [1] (50,000 cells/mL) were 93% and greater than 90%, respectively. For the same compound, in series [2], the “cytotoxicity against murine mammary epithelial cells” value is listed as “minimal cytotoxicity”. In series [2], the “% Viable cells at IC50” value worked out at 93.1%. Moreover, the “cells in G2M arrest” value with MCF-7 cells (10 nM, 24 h) is 64%; in the series on MCF-7 cells (100 nM, 24 h), 82%. Also, the entries for the “apoptotic cells (sub-G0G1)” value in the series on MCF-7 cells (10 nM) and in the series on MCF-7 cells (100 nM) were 14% and 26%, respectively. In addition, the half-life at 14.6 µg/mL in series [3] (pH 4), in [3] (pH 7.4) and in [3] (pH 9) was greater than 24 h in each case. Besides, the GI50 in the series with COLO 205 (setting [5]) is 32.1 nM; in the series on SF-268 (setting [6]) it was less than 10 nM; in the series on SF295 (setting [7]) it was 271 nM; with M14 (setting [8]), less than 10 nM; in the series with SK-MEL-2 (setting [9]), 31.4 nM; with RXF 393 (setting [10]) it was 13.6 nM.
With `C=CC1C(=O)N(c2cc(OC)c(OC)c(OC)c2)C1c1ccc(OC)c(N)c1` (stereo not drawn) [Compound 7t, 4-(3-Amino-4-methoxyphenyl)-1-(3,4,5-trimethoxyphenyl)-3-vinylazetidin-2-one], the GI50 with A549/ATCC was 39.2 nM; with HOP-62 it was 41.2 nM; with NCI-H226, 38.7 nM; in the series on NCI-H23, 38.7 nM; in the series on NCI-H552, less than 10 nM; with COLO 205 (COLO 205), 17.5 nM. Besides, the GI50 with SF-268 (SF-268) turned out to be 54.6 nM; in the series on SF295, 21.3 nM; with M14 (M14), 27.2 nM; in the series with SK-MEL-2 (SK-MEL-2) it was 65.6 nM; in the series with RXF 393 (RXF 393), 36.6 nM.
Take `C=CC1C(=O)N(c2cc(OC)c(OC)c(OC)c2)C1c1ccc(OC)c(OP(=O)(O)O)c1` (stereo not drawn) [Compound 17b, 2-Methoxy-5-(1-(3,4,5-trimethoxyphenyl)-4-oxo-3-vinylazetidin-2-yl)phenyl dihydrogen phosphate]: the half-life at 14.6 µg/mL in [3] (pH 4), in series [3] (pH 7.4) and in series [3] (pH 9) was greater than 24 h throughout. Moreover, in series [4], the “remaining after 6 h” value was found to be 62%. In addition, the GI50 in the series with COLO 205 (setting [5]) came to 1910 nM; in the series with SF-268 (setting [6]), 88.4 nM; in the series with SF295 (setting [7]) it was 29.1 nM; in the series on M14 (setting [8]) it was 748 nM; with SK-MEL-2 (setting [9]), 85.8 nM; in the series with RXF 393 (setting [10]), 64.8 nM.
As to `CCC1C(=O)N(c2cc(OC)c(OC)c(OC)c2)C1c1ccc(OC)c(OP(=O)(O)O)c1` (stereo not drawn) [Compound 17c, 5-(3-Ethyl-1-(3,4,5-trimethoxyphenyl)-4-oxoazetidin-2-yl)-2-methoxyphenyl dihydrogen phosphate], the half-life at 14.6 µg/mL in series [3] (pH 4), in series [3] (pH 7.4) and in series [3] (pH 9) was greater than 24 h in each case. In addition, the “remaining after 6 h” value in series [4] amounted to 34%. The GI50 in the series with COLO 205 (setting [5]) was found to be 204 nM; in the series on SF-268 (setting [6]), 43.3 nM; with SF295 (setting [7]), 24.3 nM; in the series with M14 (setting [8]), 31.7 nM; with SK-MEL-2 (setting [9]), 54.4 nM; with RXF 393 (setting [10]) it was 36.9 nM.

These data come from PMC6630832, “3-Vinylazetidin-2-Ones: Synthesis, Antiproliferative and Tubulin Destabilizing Activity in MCF-7 and MDA-MB-231 Breast Cancer Cells” (Pharmaceuticals, 2019).
